Results from US10189843B2, “Fused pyrazole derivative having autotaxin inhibitory activity” (The University of Tokyo, priority 2014, dated 2019).

Target: T1, Human autotaxin enzyme (Homo sapiens, UniProt Q13822)
T1 construct: purchased R&D System
Assay: Evaluation of autotaxin inhibitor, Method C (18:0 Lyso PC substrate, choline assay, Resorufin fluorescence)
Assay type: biochemical
Conditions: Method C (Test Example 3), read-out: Inhibitory activity (enzyme inhibitory activity, IC50)
Protocol: Test Example 3 (Method C) Evaluation of Autotaxin Inhibitor
Solution B containing 100 mM Tris-HCl buffer (pH7.5), 150 mM NaCl, 5 mM MgCl2, and 0.05% Triton X-100 was prepared. Human autotaxin enzyme (purchased from R&D System) was diluted with Solution B, and 2.5 μl of which was added to a solution of test compound in DMSO. Furthermore, 2.5 μl of 200 μM 18:0 Lyso PC (purchased from Avanti Polar Lipids) in Solution B was added and allowed to react at room temperature for 2 hours. After completion of the reaction, 15 μl of the coline assay reagent (100 mM Tris-HCl buffer (pH7.5), 5 mM MgCl2, 77 μg/ml coline oxidase, 10 μg/ml peroxydase, 25 μM 10-acetyl-3,7-dihydroxyphenoxazine, and excess autotaxin inhibitor) was added and allowed to react at room temperature for 20 minutes. The fluorescent dye Resorufin, which was produced by the reaction, was detected. The fluorescence was detected using ViewLux (PerkinElmer, Inc.) with a excitation wavelength of 531 nm and a fluorescence wavelength of 598 nm.
The percent inhibition of the test compound was calculated by assuming the sample with no test compound as 0% inhibition and the sample with no enzyme as 100% inhibition, and the percent inhibitions at different concentrations of the test compound were plotted to obtain a concentration-dependent curve.

IC50 | Compound
10 to 100 nM | CCCCCC1CN(Cc2cccc(C(=O)N3CCC(O)CC3)c2)C(=O)c2cc(-c3ccc(Cl)cc3)nn21 (centres unmarked) [Compound I-0137]
≥ 1000 nM | N#Cc1ccc(CN2CC(COCc3ccccc3)n3nc(-c4ccc(Cl)cc4)cc3C2=O)cc1 (centres unmarked) [Compound I-0177]
≥ 1000 nM | CCCCC1CN(CC(=O)NCc2ccnc(O)c2)C(=O)c2cc(-c3ccc(Cl)cc3)nn21 (centres unmarked) [Compound I-0236]
10 to 100 nM | CCCCCC1CN(CC(=O)N2C[C@@H]3C(C(=O)O)[C@@H]3C2)C(=O)c2cc(-c3ccc(Cl)cc3)nn21 (some centres unmarked) [Compound I-0063]
100 to 1000 nM | O=C(O)c1cccc(CN2C(=O)c3cc(-c4ccc(Cl)cc4)nn3[C@H]3CCC[C@H]32)c1 [Compound I-0149]
10 to 100 nM | CC(=O)NC1=C(c2cc3n(n2)[C@@H](C)CN(Cc2ccc(C#N)cc2)C3=O)C(=O)CC(C(F)(F)F)C1 (some centres unmarked) [Compound I-0368]
100 to 1000 nM | CCCCCC1CN(CC(=O)NCCCCCC(=O)O)C(=O)c2cc(-c3ccc(Cl)cc3)nn21 (centres unmarked) [Compound I-0046]
≥ 1000 nM | O=C1NCC(COCc2ccccc2)n2nc(-c3ccc(Cl)cc3)cc21 (centres unmarked) [Compound I-0024]
100 to 1000 nM | CCCCCC1CN(CC(=O)N2CCCCC2)C(=O)c2cc(-c3ccc(Cl)cc3)nn21 (centres unmarked) [Compound I-0083]
< 10 nM | CC(=O)Nc1cc(Cl)ccc1-c1cc2n(n1)[C@@H](C)CN(Cc1ccc(C#N)cc1)C2=O [Compound I-0285]
≥ 1000 nM | CC(C)OCC1CNC(=O)c2cc(-c3ccc(Cl)cc3)nn21 (centres unmarked) [Compound I-0199]
≥ 1000 nM | CCCCCC1CNC(=O)c2cc(-c3ccc(Cl)cc3)nn21 (centres unmarked) [Compound I-0001]
10 to 100 nM | CCCCCC1CN(Cc2cccc3c(C(=O)O)csc23)C(=O)c2cc(-c3ccc(Cl)cc3)nn21 (centres unmarked) [Compound I-0121]
10 to 100 nM | CC(=O)Nc1cc(C(F)(F)F)ccc1-c1cc2n(n1)[C@@H](C)CN(Cc1ccc(C#N)cc1)C2=O [Compound I-0333]
≥ 1000 nM | C[C@H]1CN(Cc2ccc(C#N)cc2)C(=O)c2cc(-c3ccc(Cl)cc3N)nn21 [Compound I-0320]
10 to 100 nM | C[C@H]1CN(CC(=O)N(C)CC#N)C(=O)c2cc(-c3ccc(Cl)cc3NC(=O)C3CC3)nn21 [Compound I-0365]
< 10 nM | CC(=O)Nc1cc(OC(F)(F)F)ccc1-c1cc2n(n1)[C@@H](C)CN(Cc1cccc(C(=O)O)c1)C2=O [Compound I-0345]
100 to 1000 nM | CCCCCC1CN(CC(=O)N2CCC(O)C2)C(=O)c2cc(-c3ccc(Cl)cc3)nn21 (centres unmarked) [Compound I-0035]
100 to 1000 nM | CCCCCC1CN(CC(=O)N2CCC(CC(C)C)C2)C(=O)c2cc(-c3ccc(Cl)cc3)nn21 (centres unmarked) [Compound I-0039]
100 to 1000 nM | C[C@H]1CN(Cc2ccc(C#N)cc2)C(=O)c2cc(-c3ccc(Cl)cc3CO)nn21 [Compound I-0297]
10 to 100 nM | CC(=O)Nc1cc(C#N)ccc1-c1cc2n(n1)[C@@H](C)CN(CC(=O)N(C)CCC#N)C2=O [Compound I-0341]
≥ 1000 nM | CCCCCC1CN(CC(=O)N2CCC(C(N)=O)CC2)C(=O)c2cc(-c3ccc(Cl)cc3)nn21 (centres unmarked) [Compound I-0033]
≥ 1000 nM | CCCCCC1CN(Cc2ccc(C#N)cc2)C(=O)c2cc(C(=O)N3CCC(C#N)CC3)nn21 (centres unmarked) [Compound I-0180]
10 to 100 nM | CCCCC1CN(CC(=O)NCC#N)C(=O)c2cc(-c3ccc(Cl)cc3)nn21 (centres unmarked) [Compound I-0213]
100 to 1000 nM | CCCCCC1CN(CC(=O)N2CCCC2C)C(=O)c2cc(-c3ccc(Cl)cc3)nn21 (centres unmarked) [Compound I-0081]
≥ 1000 nM | CCOC(=O)CN1C[C@H](C)n2nc(-c3ccc(Cl)cc3)cc2C1=O [Compound I-0019]
≥ 1000 nM | CCCCC1CN(C(C(C)=O)c2ccccc2)C(=O)c2cc(-c3ccc(Cl)cc3)nn21 (centres unmarked) [Compound I-0262]

IC50 | Compound
≥ 1000 nM | CCCCCC1CN(CC(=O)Nc2ccccc2)C(=O)c2cc(-c3ccc(Cl)cc3)nn21 (centres unmarked) [Compound I-0087]
100 to 1000 nM | CCCCC1CN(Cc2ccc(C#N)cc2)C(=O)c2cc(-c3ccc(OC(F)(F)F)cc3)nn21 (centres unmarked) [Compound I-0194]
100 to 1000 nM | CCCCC1CN(CC(=O)N2CCCC[C@H]2C)C(=O)c2cc(-c3ccc(Cl)cc3)nn21 (some centres unmarked) [Compound I-0241]
100 to 1000 nM | N#CC1(NC(=O)CN2CC(COCC(F)(F)F)n3nc(-c4ccc(Cl)cc4)cc3C2=O)CC1 (centres unmarked) [Compound I-0314]
100 to 1000 nM | CCCCCC1CN(Cc2cccc(C#N)c2)C(=O)c2cc(-c3ccc(Cl)cc3)nn21 (centres unmarked) [Compound I-0131]
100 to 1000 nM | CCCCCC1CN(CC(=O)N2CCCCC2c2ccccc2)C(=O)c2cc(-c3ccc(Cl)cc3)nn21 (centres unmarked) [Compound I-0105]
10 to 100 nM | C[C@H]1CN(Cc2ccc(C#N)cc2)C(=O)c2cc(-c3ccc(Cl)cc3NC(=O)CN(C)C)nn21 [Compound I-0332]
100 to 1000 nM | CCOCC1CN(Cc2ccc(C#N)cc2)C(=O)c2cc(-c3ccc(Cl)cc3)nn21 (centres unmarked) [Compound I-0178]
100 to 1000 nM | CCCCCC1CN(Cc2ccc(C(N)=O)cc2)C(=O)c2cc(-c3ccc(Cl)cc3)nn21 (centres unmarked) [Compound I-0147]
≥ 1000 nM | CCCCC1CN(Cc2ccc(C#N)cc2)C(=O)c2cc(N3CC(c4ccccc4)C3)nn21 (centres unmarked) [Compound I-0303]
10 to 100 nM | CCCCCC1CN(CC(=O)N2CCCCC2C(=O)N2CCCCC2)C(=O)c2cc(-c3ccc(Cl)cc3)nn21 (centres unmarked) [Compound I-0041]
10 to 100 nM | CCCCCC1CN(CC(=O)N2CCCCC2C)C(=O)c2cc(-c3ccc(Cl)cc3)nn21 (centres unmarked) [Compound I-0116]
10 to 100 nM | CCCCC1CN(CNC(=O)CC#N)C(=O)c2cc(-c3ccc(Cl)cc3)nn21 (centres unmarked) [Compound I-0289]
100 to 1000 nM | CCCCC1CN(CC(=O)N[C@@H]2CCC[C@H]2O)C(=O)c2cc(-c3ccc(Cl)cc3)nn21 (some centres unmarked) [Compound I-0245]
≥ 1000 nM | C[C@H]1CN(CC(=O)N(C)CC(=O)O)C(=O)c2cc(-c3ccc(Cl)cc3)nn21 [Compound I-0155]
10 to 100 nM | C[C@H]1CN(CC(=O)NC(Cc2ccccc2)C(=O)O)C(=O)c2cc(-c3ccc(Cl)cc3)nn21 (some centres unmarked) [Compound I-0160]
10 to 100 nM | CCCCC1CN(CC(=O)N2CCC(C(=O)OC)CC2)C(=O)c2cc(-c3ccc(Cl)cc3)nn21 (centres unmarked) [Compound I-0279]
100 to 1000 nM | CCCCCC1CN(Cc2cccc(NC(C)=O)c2)C(=O)c2cc(-c3ccc(Cl)cc3)nn21 (centres unmarked) [Compound I-0142]
≥ 1000 nM | CCCCC1CN(Cc2ccc(C#N)cc2)C(=O)c2cc(-c3ccc(Cl)cc3COC)nn21 (centres unmarked) [Compound I-0284]
≥ 1000 nM | CCOC(=O)C1CCN(C(=O)CN2C(=O)c3cc(-c4ccc(Cl)cc4)nn3[C@@H]3CCC[C@@H]32)CC1 [Compound I-0011]
100 to 1000 nM | CCCCC1CN(CC(=O)N[C@@H]2CCC[C@H]2O)C(=O)c2cc(-c3ccc(Cl)cc3)nn21 (some centres unmarked) [Compound I-0221]
10 to 100 nM | CCCCC1CN(CC(=O)N2CCOC(C#N)C2)C(=O)c2cc(-c3ccc(Cl)cc3)nn21 (centres unmarked) [Compound I-0239]
100 to 1000 nM | CCCCCC1CN(CC(=O)NC2CCC(C(=O)O)CC2)C(=O)c2cc(-c3ccc(Cl)cc3)nn21 (centres unmarked) [Compound I-0060]
10 to 100 nM | CCCCC1CN(Cc2ccc(C#N)cc2)C(=O)c2cc(-c3ccc(Cl)cc3C=O)nn21 (centres unmarked) [Compound I-0204]
100 to 1000 nM | CCCCC1CN(CC(=O)NCCc2cn[nH]c2)C(=O)c2cc(-c3ccc(Cl)cc3)nn21 (centres unmarked) [Compound I-0234]
100 to 1000 nM | CCCCC1CN(Cc2ccc(C#N)cc2)C(=O)c2cc(-c3ccc(Cl)cc3CC#N)nn21 (centres unmarked) [Compound I-0293]
